Data taken from patent US4816467A, “Heteroaryl 3-oxo-propanenitrile derivatives, pharmaceutical compositions and use” (Farmitalia Carlo Erba s.r.l, priority 1987, dated 1989).

How the values were obtained:
[1] = approximate acute toxicity (LD50) in the mouse, per os; settings: in vivo, po, single administration of increasing doses, measured on the seventh day
Protocol: For example, the approximate acute toxicity (LD50) in the mouse of the compounds 2-cyano-3-(1,4-dihydro-1-phenyl-[1]-benzopyrano[4,3-c]pyrazol-3-yl)-3-oxo- N-phenyl-propanamide, and 2-cyano-3-(1,4-dihydro-1-phenyl-[1]-benzothiopyrano[4,3-c]pyrazol-3-yl)-3- oxo-N-phenyl-propanamide, determined per os with single administration of increasing doses and measured on the seventh day after the day of treatment, is higher than 800 mg/kg. Analogous toxicity data have been found for the other compounds of the invention.

[2] = test system: S. flexneri; experiment: Activity on S. flexneri infection in mice; type: in vivo; settings: infection 3 × LD50 i.p., controls 100
Protocol: (§1) The compound of the present invention 2-cyano-3-(1,4-dihydro-1-phenyl-[1]-benzothiopyrano[4,3-c]pyrazol-3-yl)-3- oxo-N-phenyl-propanamide (internal code FCE 24578), for instance, was tested, according to the procedure described by Cleeland R., Grunberg E. 1986, 825-876, "Antibiotics in Laboratory Medicine" Lorian V. Editor (Williams and Wilkins), in the following models of infection: L. monocytogenes; D. pneumoniae; S. flexneri and P. aeruginosa; the last one being performed in cyclophosphamide immunosuppressed mice, according to Cryz S. J., Furer E., Germanier R., 1983, Infect. Imm., 39, 1067-1071.
(§2) Activity of FCE 24578 on S. flexneri and D. pneumoniae
(§3) Infection (3 × LD50) was given i.p.
(§4) Treatments with FCE 24578 or vehicle were performed on -3, -2, -1 and 0

[3] = test system: D. pneumoniae; experiment: Activity on D. pneumoniae infection in mice; type: in vivo; settings: infection 3 × LD50 i.p.
Protocol: as §1, §2, §3, §4
MST = Mean Survival Time.
*= significant for p < 0.01.

[4] = test system: L. monocytogenes; experiment: Activity on L. monocytogenes infection in mice; type: in vivo; settings: L. monocytogenes 1 × LD50 i.v., controls 75
Protocol: as §1
Activity of FCE 24578 on L. monocytogenes infection
Treatments with FCE 2457B or vehicle were performed on -3, -2, -1 and 0
day before the infection (1 × LD50) given i.v.

[5] = test system: P. aeruginosa; experiment: Activity on P. aeruginosa infection in immunosuppressed mice; type: in vivo; settings: cyclophosphamide immunosuppressed; for % mortality 1 × LD50: P. aeruginosa 1 × LD50 i.v., controls 80; for % mortality 2 × LD50: P. aeruginosa 2 × LD50 i.v., controls 90
Protocol: as §1
Activity of FCE 24578 on P. aeruginosa infection
in immunosuppressed mice
Cyclophosphamide (200 mg/kg) was administered i.p. on the fourth day
The treatments with FCE 24578 or vehicle were performed on -3, -2, -1 and
0 day before the infection (2 × LD50 and 1 × LD50)

| SMILES | LD50 at 168 h [1] | % mortality ([2]; 10 mg/kg i.p. on -3, -2, -1 and 0 day before infection) | % mortality ([2]; 50 mg/kg i.p. on -3, -2, -1 and 0 day before infection) | MST (Mean Survival Time) ([3]; 10 mg/kg i.p. on -3, -2, -1 and 0 day before infection, controls 3.1) | MST (Mean Survival Time) ([3]; 50 mg/kg i.p. on -3, -2, -1 and 0 day before infection, controls 3.1, * = significant for p < 0.01) | % mortality 1 × LD50 ([4]; 10 mg/kg i.p.) | % mortality 1 × LD50 ([4]; 50 mg/kg i.p.) | % mortality 1 × LD50 ([4]; 50 mg/kg p.o.) | % mortality 1 × LD50 ([4]; 250 mg/kg p.o.) | % mortality 1 × LD50 ([5]; 10 mg/kg i.p.) | % mortality 1 × LD50 ([5]; 50 mg/kg i.p.) | % mortality 2 × LD50 ([5]; 10 mg/kg i.p.) | % mortality 2 × LD50 ([5]; 50 mg/kg i.p.) |
| --- | --- | --- | --- | --- | --- | --- | --- | --- | --- | --- | --- | --- | --- |
| N#CC(C(=O)Nc1ccccc1)C(=O)c1nn(-c2ccccc2)c2c1COc1ccccc1-2 (centres unmarked) [FCE 25158, 2-cyano-3-(1,4-dihydro-1-phenyl-[1]-benzopyrano[4,3-c]pyrazol-3-yl)-3-oxo-N-phenyl-propanamide] | > 800 mg/kg |  |  |  |  |  |  |  |  |  |  |  |  |
| N#CC(C(=O)Nc1ccccc1)C(=O)c1nn(-c2ccccc2)c2c1CSc1ccccc1-2 (centres unmarked) [FCE 24578, 2-cyano-3-(1,4-dihydro-1-phenyl-[1]-benzothiopyrano[4,3-c]pyrazol-3-yl)-3-oxo-N-phenyl-propanamide] | > 800 mg/kg | 40% | 10% | 4 days | 5.7 days | 12.5% | 0% | 37.5% | 25% | 0% | 0% | 0% | 0% |
